Tests used:
serum phosphorus = test: Phase 3 trial (Example 1), four-week placebo-controlled Efficacy Assessment Period: serum phosphorus; type: in vivo, human; conditions: for Serum Phosphorus, Mean / Serum Phosphorus, Median: Efficacy Assessment Period; for Serum Phosphorus, Mean / Serum Phosphorus, Median / Serum Phosphorus, LS Mean / Serum Phosphorus, Treatment Differences, LS Mean (KRX-0502) − LS Mean (Placebo), (SE) / Serum Phosphorus, Change from Baseline, Mean / Serum Phosphorus, Change from Baseline, Median: Table 14; for Serum Phosphorus, Change from Baseline, Mean / Serum Phosphorus, Change from Baseline, Median: Week-52 baseline
From the text: This trial was a three-period, multicenter, safety and efficacy clinical trial.
Period 3 (Efficacy Assessment Period). Following the Safety Assessment Period, those patients randomized to treatment with ferric citrate entered a four-week, randomized, open-label, placebo-controlled Efficacy Assessment Period.
Serum phosphorus and calcium were checked at Visit 5 (Week 1), and every two weeks during the first 12 weeks after Visit 4 (Randomization Visit), and monthly for the rest of the Safety Assessment Period. During the Efficacy Assessment Period, serum phosphorus and calcium were drawn weekly. These values guided study drug administration. While on study drug, the use of other phosphate binders was not permitted. […] The titration of calcium acetate and sevelamer carbonate throughout the 52-week Safety Assessment Period were according to the current package inserts for these agents and/or at the discretion of the site PI.
Serum phosphorus and calcium were performed at Screening (Visit 0); weekly during the Washout Period after Visit 1 (Week −2); at Visit 4 (Randomization Visit); at Visits 5 (Week 1), 6 (Week 2), 7 (Week 4), 8 (Week 6), 9 (Week 8), 10 (Week 10), 11 (Week 12), 12 (Week 16), 13 (Week 20), 14 (Week 24), 15 (Week 28), 16 (Week 32), 17 (Week 36), 18 (Week 40), 19 (Week 44), 20 (Week 48), and 21 (Week 52) of the 52-week Safety Assessment Period; and at Visits 22 (Week 53), 23 (Week 54), 24 (Week 55) and 25 (Week 56) of the Efficacy Assessment Period.
There were two unique and distinct baseline assessments. The baseline for the Safety Assessment Period was the Randomization Visit (Visit 4) and was defined as “Week-O-baseline.” The baseline for the Efficacy Assessment Period was the last visit of the Safety Assessment Period (Visit 21, Week 52) and was defined as “study-baseline.”
The primary efficacy variable was analyzed via an ANCOVA model with treatment as the fixed effect and study-baseline as the covariate. Between-treatment differences were estimated and two-sided 95% confidence intervals for the differences were presented.

hemoglobin = test: Phase 3 trial (Example 1): hemoglobin; type: in vivo, human; set-up: Hemoglobin, Mean / Hemoglobin, Median / Hemoglobin, Change from Baseline, Mean / Hemoglobin, Change from Baseline, Median / Hemoglobin, LS Mean: unit not given here; conditions: for Hemoglobin, Mean / Hemoglobin, Median / Hemoglobin, LS Mean / Hemoglobin, Change from Baseline, Mean / Hemoglobin, Change from Baseline, Median / Hemoglobin, Treatment Differences, LS Mean (KRX-0502) − LS Mean (control), (SE): Table 17
From the text: Complete Blood Count (CBC) (white blood cell [WBC] count, white blood cell types [WBC differential], red blood cell [RBC] count, hematocrit [HCT], hemoglobin [Hgb], red blood cell indices, platelet [thrombocyte] count) was done at the Randomization Visit (Visit 4); at Visits 11 (Week 12), 14 (Week 24), 17 (Week 36), 20 (Week 48), and 21 (Week 52) of the 52-week Safety Assessment Period; and at Visit 25 (Week 56) of the Efficacy Assessment Period.

[1] = Day 0 Baseline, Safety Assessment Period

iron (+3), x (1, 2, 3-propanetricarboxylic acid, 2-hydroxy-), y (H2O) [KRX-0502]
Mean Serum Phosphorus (serum phosphorus; End of Treatment (Week 56), LOCF, Table A): 4.9 mg/dL
Serum Phosphorus, Mean (serum phosphorus; Week 52 Baseline): 5.16
Serum Phosphorus, Median (serum phosphorus; Week 52 Baseline): 5.10
Serum Phosphorus, LS Mean (serum phosphorus; Week 53, ANCOVA): 4.92
Serum Phosphorus, Mean (serum phosphorus; Week 53): 4.90
Serum Phosphorus, Median (serum phosphorus; Week 53): 4.95
Serum Phosphorus, Treatment Differences, LS Mean (KRX-0502) − LS Mean (Placebo), (SE) (serum phosphorus; Week 53): −1.73 (0.21)
Serum Phosphorus, Change from Baseline, Mean (serum phosphorus; Week 53): −0.31
Serum Phosphorus, Change from Baseline, Median (serum phosphorus; Week 53): −0.30
Serum Phosphorus, LS Mean (serum phosphorus; Week 54, ANCOVA): 4.80
Serum Phosphorus, Mean (serum phosphorus; Week 54): 4.78
Serum Phosphorus, Median (serum phosphorus; Week 54): 4.70
Serum Phosphorus, Treatment Differences, LS Mean (KRX-0502) − LS Mean (Placebo), (SE) (serum phosphorus; Week 54): −2.08 (0.22)
Serum Phosphorus, Change from Baseline, Mean (serum phosphorus; Week 54): −0.36
Serum Phosphorus, Change from Baseline, Median (serum phosphorus; Week 54): −0.40
Serum Phosphorus, LS Mean (serum phosphorus; Week 55, ANCOVA): 4.76
Serum Phosphorus, Mean (serum phosphorus; Week 55): 4.75
Serum Phosphorus, Median (serum phosphorus; Week 55): 4.60
Serum Phosphorus, Treatment Differences, LS Mean (KRX-0502) − LS Mean (Placebo), (SE) (serum phosphorus; Week 55): −2.18 (0.23)
Serum Phosphorus, Change from Baseline, Mean (serum phosphorus; Week 55): −0.41
Serum Phosphorus, Change from Baseline, Median (serum phosphorus; Week 55): −0.50
Serum Phosphorus, LS Mean (serum phosphorus; Week 56, ANCOVA): 4.94
Mean Serum Phosphorus, Least Squares (LS) Mean Difference from Placebo (serum phosphorus; Week 56, ANCOVA, Table A): -2.3 mg/dL
Serum Phosphorus, Mean (serum phosphorus; Week 56): 4.92
Serum Phosphorus, Median (serum phosphorus; Week 56): 4.60
Serum Phosphorus, Treatment Differences, LS Mean (KRX-0502) − LS Mean (Placebo), (SE) (serum phosphorus; Week 56): −2.28 (0.23)
Serum Phosphorus, Change from Baseline, Mean (serum phosphorus; Week 56): −0.23
Serum Phosphorus, Change from Baseline, Median (serum phosphorus; Week 56): −0.50
Mean Serum Phosphorus (serum phosphorus; baseline Week 52, Table A): 5.2 mg/dL
Mean Serum Phosphorus, Change from Baseline at Week 56 (serum phosphorus; baseline Week 52, Table A): -0.3 mg/dL
Mean Hemoglobin, LS Mean Difference from Active Control Group at Week 52 (hemoglobin; ANCOVA, Table E): 0.4 g/dL
Mean Hemoglobin (hemoglobin; Baseline (Day 0), Table E): 11.6 g/dL
Hemoglobin, Mean (hemoglobin; [1]): 11.61
Hemoglobin, Median (hemoglobin; [1]): 11.45
Mean Hemoglobin, Change from Baseline at Week 52 (hemoglobin; Table E): -0.2 g/dL
Hemoglobin, LS Mean (hemoglobin; Week 12, ANCOVA): 11.83
Hemoglobin, Change from Baseline, Mean (hemoglobin; Week 12): 0.19
Hemoglobin, Change from Baseline, Median (hemoglobin; Week 12): 0.10
Hemoglobin, Mean (hemoglobin; Week 12): 11.82
Hemoglobin, Median (hemoglobin; Week 12): 11.70
Hemoglobin, Treatment Differences, LS Mean (KRX-0502) − LS Mean (control), (SE) (hemoglobin; Week 12): 0.30 (0.14)
Hemoglobin, LS Mean (hemoglobin; Week 24, ANCOVA): 11.56
Hemoglobin, Change from Baseline, Mean (hemoglobin; Week 24): −0.08
Hemoglobin, Change from Baseline, Median (hemoglobin; Week 24): −0.10
Hemoglobin, Mean (hemoglobin; Week 24): 11.55
Hemoglobin, Median (hemoglobin; Week 24): 11.30
Hemoglobin, Treatment Differences, LS Mean (KRX-0502) − LS Mean (control), (SE) (hemoglobin; Week 24): 0.12 (0.13)
Hemoglobin, LS Mean (hemoglobin; Week 36, ANCOVA): 11.55
Hemoglobin, Change from Baseline, Mean (hemoglobin; Week 36): −0.08
Hemoglobin, Change from Baseline, Median (hemoglobin; Week 36): −0.10
Hemoglobin, Mean (hemoglobin; Week 36): 11.54
Hemoglobin, Median (hemoglobin; Week 36): 11.20
Hemoglobin, Treatment Differences, LS Mean (KRX-0502) − LS Mean (control), (SE) (hemoglobin; Week 36): 0.27 (0.14)
Hemoglobin, LS Mean (hemoglobin; Week 48, ANCOVA): 11.52
Hemoglobin, Change from Baseline, Mean (hemoglobin; Week 48): −0.12
Hemoglobin, Change from Baseline, Median (hemoglobin; Week 48): −0.20
Hemoglobin, Mean (hemoglobin; Week 48): 11.50
Hemoglobin, Median (hemoglobin; Week 48): 11.20
Hemoglobin, Treatment Differences, LS Mean (KRX-0502) − LS Mean (control), (SE) (hemoglobin; Week 48): 0.30 (0.14)
Hemoglobin, LS Mean (hemoglobin; Week 52, ANCOVA): 11.44
Mean Hemoglobin (hemoglobin; Week 52, LOCF, Table E): 11.4 g/dL
Hemoglobin, Change from Baseline, Mean (hemoglobin; Week 52): −0.20
Hemoglobin, Change from Baseline, Median (hemoglobin; Week 52): −0.20
Hemoglobin, Mean (hemoglobin; Week 52): 11.42
Hemoglobin, Median (hemoglobin; Week 52): 11.20
Hemoglobin, Treatment Differences, LS Mean (KRX-0502) − LS Mean (control), (SE) (hemoglobin; Week 52): 0.36 (0.14)
